In US20240317724A1, “3,4-METHYLENEDIOXYMETHAMPHETAMINE AND RELATED PS[…] USES THEREOF” (Terran Biosciences Inc., priority 2021, published 2024):

What was measured:
[1] = Single intravenous (IV) dose pharmacokinetics study in rats; plasma concentration of MDMA by LC-MS/MS
[2] = Single oral (PO) dose pharmacokinetics study in rats; plasma concentration of MDMA (and prodrug) by LC-MS/MS; details: for AUC(0-t): po
[3] = male, Sprague-Dawley, rat, plasma, iv, 1 mg/kg
[4] = 0.50 h after oral dosing of prodrug 10 mg/Kg, male SD rats
[5] = 1.00 h after oral dosing of prodrug 10 mg/Kg, male SD rats
[6] = 2.00 h after oral dosing of prodrug 10 mg/Kg, male SD rats
[7] = 4.00 h after oral dosing of prodrug 10 mg/Kg, male SD rats
[8] = 7.00 h after oral dosing of prodrug 10 mg/Kg, male SD rats
[9] = 24.0 h after oral dosing of prodrug 10 mg/Kg, male SD rats

## CNC(C)Cc1ccc2c(c1)OCO2 (stereo not drawn) [MDMA, 3,4-Methylenedioxymethamphetamine]
[1]; MDMA dosed IV 1 mg/Kg, male SD rats, analyte MDMA, median
  Tlast: 2.00 h
[1]; [3]
  Vd: 8.18 L/kg
  clearance: 274 mL/min/kg
[2]; MDMA dosed PO 10 mg/Kg, male SD rats, analyte MDMA, median
  Tlast: 7.00 h
[2]; male, Sprague-Dawley, rat, plasma, oral, 10 mg/kg
  bioavailability: 104%
[2]; male, Sprague-Dawley, rat, plasma, 10 mg/kg, AUC0-2, MDMA dosed PO 10 mg/Kg, male SD rats, analyte MDMA, mean
  AUC(0-t): 638 ng·h/mL
[2]; male, Sprague-Dawley, rat, plasma, 10 mg/kg, AUC0-24, MDMA dosed PO 10 mg/Kg, male SD rats, analyte MDMA, mean
  AUC(0-t): 1810 ng·h/mL
[2]; male, Sprague-Dawley, rat, plasma, 10 mg/kg, AUC0-last, MDMA dosed PO 10 mg/Kg, male SD rats, analyte MDMA, mean
  AUC(0-t): 1710 ng·h/mL

## CC(Cc1ccc2c(c1)OCO2)N(C)C(=O)OC(C)(C)C (stereo not drawn) [Tert-butyl carbamate prodrug of MDMA, tert-butyl N-[2-(1,3-benzodioxol-5-yl)-1-methyl-ethyl]-N-methyl-carbamate]
[2]; [4]
  Mean plasma concentration of metabolite MDMA: BLQ (BLQ: Below Lower Limit of Quantification (0.5 ng/mL))
[2]; [5]
  Mean plasma concentration of metabolite MDMA: BLQ (BLQ: Below Lower Limit of Quantification (0.5 ng/mL))
[2]; [6]
  Mean plasma concentration of metabolite MDMA: BLQ (BLQ: Below Lower Limit of Quantification (0.5 ng/mL))
[2]; [7]
  Mean plasma concentration of metabolite MDMA: BLQ (BLQ: Below Lower Limit of Quantification (0.5 ng/mL))
[2]; [8]
  Mean plasma concentration of metabolite MDMA: BLQ (BLQ: Below Lower Limit of Quantification (0.5 ng/mL))
[2]; [9]
  Mean plasma concentration of metabolite MDMA: BLQ (BLQ: Below Lower Limit of Quantification (0.5 ng/mL))

## CC(Cc1ccc2c(c1)OCO2)N(C)C(=O)OC1CCOC1 (stereo not drawn) [THF carbamate prodrug of MDMA, tetrahydrofuran-3-yl N-[2-(1,3-benzodioxol-5-yl)-1-methyl-ethyl]-N-methyl-carbamate]
[2]; [4]
  Mean plasma concentration of metabolite MDMA: BLQ (BLQ: Below Lower Limit of Quantification (0.5 ng/mL))
[2]; [5]
  Mean plasma concentration of metabolite MDMA: BLQ (BLQ: Below Lower Limit of Quantification (0.5 ng/mL))
[2]; [6]
  Mean plasma concentration of metabolite MDMA: BLQ (BLQ: Below Lower Limit of Quantification (0.5 ng/mL))
[2]; [7]
  Mean plasma concentration of metabolite MDMA: BLQ (BLQ: Below Lower Limit of Quantification (0.5 ng/mL))
[2]; [8]
  Mean plasma concentration of metabolite MDMA: BLQ (BLQ: Below Lower Limit of Quantification (0.5 ng/mL))
[2]; [9]
  Mean plasma concentration of metabolite MDMA: BLQ (BLQ: Below Lower Limit of Quantification (0.5 ng/mL))

## CC(Cc1ccc2c(c1)OCO2)N(C)C(=O)CCCC(=O)O (stereo not drawn) [Glutarate Prodrug of MDMA, 4-{[2-(2H-1,3-Benzodioxol-5-yl)-1-methyl-ethyl]-N-methylcarbamoyl}butyric acid]
[2]; [4]
  Mean plasma concentration of metabolite MDMA: BLQ (BLQ: Below Lower Limit of Quantification (0.5 ng/mL))
[2]; [5]
  Mean plasma concentration of metabolite MDMA: BLQ (BLQ: Below Lower Limit of Quantification (0.5 ng/mL))
[2]; [6]
  Mean plasma concentration of metabolite MDMA: BLQ (BLQ: Below Lower Limit of Quantification (0.5 ng/mL))
[2]; [7]
  Mean plasma concentration of metabolite MDMA: BLQ (BLQ: Below Lower Limit of Quantification (0.5 ng/mL))
[2]; [8]
  Mean plasma concentration of metabolite MDMA: BLQ (BLQ: Below Lower Limit of Quantification (0.5 ng/mL))
[2]; [9]
  Mean plasma concentration of metabolite MDMA: BLQ (BLQ: Below Lower Limit of Quantification (0.5 ng/mL))

## CC(Cc1ccc2c(c1)OCO2)N(C)C(=O)[C@@H](N)CCCCN (stereo partly drawn) [Lysine prodrug of MDMA, (2S)-2,6-diamino-N-[2-(1,3-benzodioxol-5-yl)-1-methyl-ethyl]-N-methyl-hexanamide]
[2]; [4]
  Mean plasma concentration of metabolite MDMA: BLQ (BLQ: Below Lower Limit of Quantification (0.5 ng/mL))
[2]; [5]
  Mean plasma concentration of metabolite MDMA: BLQ (BLQ: Below Lower Limit of Quantification (0.5 ng/mL))
[2]; [6]
  Mean plasma concentration of metabolite MDMA: BLQ (BLQ: Below Lower Limit of Quantification (0.5 ng/mL))
[2]; [7]
  Mean plasma concentration of metabolite MDMA: BLQ (BLQ: Below Lower Limit of Quantification (0.5 ng/mL))
[2]; [8]
  Mean plasma concentration of metabolite MDMA: BLQ (BLQ: Below Lower Limit of Quantification (0.5 ng/mL))
[2]; [9]
  Mean plasma concentration of metabolite MDMA: BLQ (BLQ: Below Lower Limit of Quantification (0.5 ng/mL))
[2]; oral dosing of prodrug 10 mg/Kg, male SD rats, analyte prodrug, mean
  Tlast of MDMA prodrug: 24.0 h

## CC(=O)N(C)C(C)Cc1ccc2c(c1)OCO2 (stereo not drawn) [Methyl amide (acetyl) prodrug of MDMA, N-[2-(2H-1,3-Benzodioxol-5-yl)-1-methyl-ethyl]-N-methylacetamide]
[2]; [4]
  Mean plasma concentration of metabolite MDMA: BLQ (BLQ: Below Lower Limit of Quantification (0.5 ng/mL))
[2]; [5]
  Mean plasma concentration of metabolite MDMA: BLQ (BLQ: Below Lower Limit of Quantification (0.5 ng/mL))
[2]; [6]
  Mean plasma concentration of metabolite MDMA: BLQ (BLQ: Below Lower Limit of Quantification (0.5 ng/mL))
[2]; [7]
  Mean plasma concentration of metabolite MDMA: BLQ (BLQ: Below Lower Limit of Quantification (0.5 ng/mL))
[2]; [8]
  Mean plasma concentration of metabolite MDMA: BLQ (BLQ: Below Lower Limit of Quantification (0.5 ng/mL))
[2]; [9]
  Mean plasma concentration of metabolite MDMA: BLQ (BLQ: Below Lower Limit of Quantification (0.5 ng/mL))

## CC(C)COC(=O)N(C)C(C)Cc1ccc2c(c1)OCO2 (stereo not drawn) [Isobutyl carbamate prodrug of MDMA, isobutyl N-[2-(1,3-benzodioxol-5-yl)-1-methyl-ethyl]-N-methyl-carbamate]
[2]; [4]
  Mean plasma concentration of metabolite MDMA: BLQ (BLQ: Below Lower Limit of Quantification (0.5 ng/mL))
[2]; [5]
  Mean plasma concentration of metabolite MDMA: BLQ (BLQ: Below Lower Limit of Quantification (0.5 ng/mL))
[2]; [6]
  Mean plasma concentration of metabolite MDMA: BLQ (BLQ: Below Lower Limit of Quantification (0.5 ng/mL))
[2]; [7]
  Mean plasma concentration of metabolite MDMA: BLQ (BLQ: Below Lower Limit of Quantification (0.5 ng/mL))
[2]; [8]
  Mean plasma concentration of metabolite MDMA: BLQ (BLQ: Below Lower Limit of Quantification (0.5 ng/mL))
[2]; [9]
  Mean plasma concentration of metabolite MDMA: BLQ (BLQ: Below Lower Limit of Quantification (0.5 ng/mL))

## CC(Cc1ccc2c(c1)OCO2)N(C)C(=O)C(C)(C)C (stereo not drawn) [Tert-butyl amide prodrug of MDMA, N-[2-(2H-1,3-Benzodioxol-5-yl)-1-methyl-ethyl]-N-methyl-2,2-dimethylpropionamide]
[2]; [4]
  Mean plasma concentration of metabolite MDMA: BLQ (BLQ: Below Lower Limit of Quantification (0.5 ng/mL))
[2]; [5]
  Mean plasma concentration of metabolite MDMA: BLQ (BLQ: Below Lower Limit of Quantification (0.5 ng/mL))
[2]; [6]
  Mean plasma concentration of metabolite MDMA: BLQ (BLQ: Below Lower Limit of Quantification (0.5 ng/mL))
[2]; [7]
  Mean plasma concentration of metabolite MDMA: BLQ (BLQ: Below Lower Limit of Quantification (0.5 ng/mL))
[2]; [8]
  Mean plasma concentration of metabolite MDMA: BLQ (BLQ: Below Lower Limit of Quantification (0.5 ng/mL))
[2]; [9]
  Mean plasma concentration of metabolite MDMA: BLQ (BLQ: Below Lower Limit of Quantification (0.5 ng/mL))
